In publication PMC8655881 (Cancer research, 2021):
pEC50, pIC50: −log10 of the molar value.

Legend:
OE33 cells = conditions: read-out: EC50, OE33 colony formation and other Notch-dependent cell lines; as previously reported; cited from earlier work
small intestines = test: PAS staining of small intestine, 5 daily treatments; type: in vivo; conditions: 5 daily i.p. treatments; NADI-351 up to 40 mg/kg, DBZ 10 mg/kg
hNotch1^ICD = test: Inducible Notch1^ICD-driven luciferase reporter assay in 293A cells; type: cell-based, human; conditions: read-out: IC50, inducible Notch1^ICD-responsive luciferase reporter, 24 h, normalized to cell viability

## C[C@H](NC(=O)Cc1cc(F)cc(F)c1)C(=O)N[C@H](C(=O)OC(C)(C)C)c1ccccc1 [DAPT]
OE33 cells
  pEC50: 4.82 to 5.00

## C[C@H](NC(=O)Cc1cc(F)cc(F)c1)C(=O)N[C@@H]1C(=O)N(C)c2ccccc2-c2ccccc21 [DBZ]
Small intestines
  GI toxicity / goblet cell metaplasia (PAS staining): induction of goblet cell metaplasia

## CCOC(=O)COc1ccc(/C=C2\SC(=S)NC2=O)cc1OC [IMR-1]
OE33 cells
  pEC50: 4.82 to 5.00
hNotch1^ICD
  pIC50: < 4.40
